From ChEMBL document CHEMBL5108030, “Structure activity relationships leading to the identification of the indirect activator of AMPK, R419” (Bioorg Med Chem, 2022)

What was measured:
[1] = target: AMP-activated protein kinase, AMPK; assay: Activation of AMPK in human HepG2 cells assessed as increase in ACC phosphorylation at Ser79 incubated for 1 hr; type: cell-based
[2] = target: AMP-activated protein kinase, AMPK; assay: Activation of AMPK in human HepG2 cells assessed as reduction in mitochondrial ATP production incubated for 1 hr; type: cell-based
NCI-H1299 = assay: Antiproliferative activity against human NCI-H1299 cells assessed as cell growth inhibition incubated for 48 hrs by DAPI staining assay; type: functional, cell-based; conditions: NCI-H1299, 48 h
A549 = assay: Antiproliferative activity against human A549 cells assessed as cell growth inhibition incubated for 48 hrs by DAPI staining assay; type: functional, cell-based; conditions: A549, 48 h
hERG (KCNH2) = hERG (KCNH2) (Homo sapiens, UniProt Q12809); assay: Inhibition of human ERG at 3 uM; type: toxicity
Chain of hERG (KCNH2) (Q12809 whole entry): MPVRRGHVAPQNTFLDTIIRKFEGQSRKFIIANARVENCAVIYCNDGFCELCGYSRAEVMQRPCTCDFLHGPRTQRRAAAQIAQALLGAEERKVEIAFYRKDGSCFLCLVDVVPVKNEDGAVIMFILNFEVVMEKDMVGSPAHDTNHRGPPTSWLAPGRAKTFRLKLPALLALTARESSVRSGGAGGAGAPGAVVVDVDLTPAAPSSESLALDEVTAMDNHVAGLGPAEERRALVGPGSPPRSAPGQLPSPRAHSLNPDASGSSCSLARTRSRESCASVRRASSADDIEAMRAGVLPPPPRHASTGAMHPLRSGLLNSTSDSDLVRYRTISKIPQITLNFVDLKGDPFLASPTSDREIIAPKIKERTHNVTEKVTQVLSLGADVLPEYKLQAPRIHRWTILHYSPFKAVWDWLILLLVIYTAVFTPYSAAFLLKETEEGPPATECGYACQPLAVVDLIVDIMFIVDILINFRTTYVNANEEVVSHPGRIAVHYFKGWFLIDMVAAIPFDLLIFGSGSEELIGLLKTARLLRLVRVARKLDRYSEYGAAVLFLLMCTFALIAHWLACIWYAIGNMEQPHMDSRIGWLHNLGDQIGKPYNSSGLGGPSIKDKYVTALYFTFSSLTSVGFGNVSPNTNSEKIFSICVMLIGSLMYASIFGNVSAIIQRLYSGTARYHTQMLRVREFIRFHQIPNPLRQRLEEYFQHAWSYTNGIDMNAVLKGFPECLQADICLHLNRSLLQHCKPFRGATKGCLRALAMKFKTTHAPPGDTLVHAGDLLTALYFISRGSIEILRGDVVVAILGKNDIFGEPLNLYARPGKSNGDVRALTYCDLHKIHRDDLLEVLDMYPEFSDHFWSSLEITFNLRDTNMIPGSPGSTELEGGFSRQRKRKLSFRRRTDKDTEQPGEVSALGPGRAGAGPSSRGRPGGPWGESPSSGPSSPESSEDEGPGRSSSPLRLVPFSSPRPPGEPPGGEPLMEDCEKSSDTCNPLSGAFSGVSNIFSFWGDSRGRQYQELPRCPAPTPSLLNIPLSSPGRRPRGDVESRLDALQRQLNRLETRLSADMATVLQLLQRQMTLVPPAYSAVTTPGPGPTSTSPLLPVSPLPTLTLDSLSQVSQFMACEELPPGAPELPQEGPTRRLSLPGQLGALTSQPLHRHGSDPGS

[3] = Microsomal stability in human liver microsomes assessed as half life; type: ADME, Microsome
Cytochrome P450 3A4 = Cytochrome P450 3A4 (Homo sapiens, UniProt P08684); assay: Inhibition of CYP3A4 (unknown origin) in presence of NADPH; type: ADME
Chain of Cytochrome P450 3A4 (P08684 whole entry): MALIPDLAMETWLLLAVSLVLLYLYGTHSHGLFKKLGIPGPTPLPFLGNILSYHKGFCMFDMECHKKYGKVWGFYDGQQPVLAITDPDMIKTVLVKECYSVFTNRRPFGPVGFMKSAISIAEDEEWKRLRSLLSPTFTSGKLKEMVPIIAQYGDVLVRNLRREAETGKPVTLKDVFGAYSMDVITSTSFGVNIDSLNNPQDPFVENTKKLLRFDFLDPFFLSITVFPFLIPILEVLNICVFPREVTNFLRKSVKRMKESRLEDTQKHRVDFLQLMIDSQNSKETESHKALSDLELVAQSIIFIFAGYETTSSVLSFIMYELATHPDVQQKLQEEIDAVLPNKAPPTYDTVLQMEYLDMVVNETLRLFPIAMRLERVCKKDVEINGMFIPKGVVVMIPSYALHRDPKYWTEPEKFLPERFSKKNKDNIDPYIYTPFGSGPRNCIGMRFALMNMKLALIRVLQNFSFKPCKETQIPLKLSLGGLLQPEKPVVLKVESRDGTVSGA

SMILES | EC50 [1] [nM] | IC50 [2] [nM] | IC50 (NCI-H1299) [nM] | IC50 (A549) [nM] | further results
COc1ccc(C(=O)N2CCN(C(=O)c3ccc(C(=O)NC4CCN(Cc5ccc(C#N)cc5)CC4)nc3)CC2)cc1 | 175 | – | – | – | –
N#Cc1ccc(CN2CCC(NC(=O)c3ccc(C(=O)N4CCC(C(=O)c5ccc(F)cc5)CC4)cn3)CC2)cc1 | 2 | 21 | – | – | –
COc1ccc(C(=O)C2CCN(C(=O)c3ccc(C(=O)NC4CCN(Cc5ccc(N)cc5)CC4)cn3)CC2)cc1 | 1000 | – | 13800 | 8990 | –
CC1(C)CN(C(=O)c2ccc(C(=O)NC3CCN(Cc4ccc(C#N)cc4)CC3)nc2)CCN1Cc1ccc(F)cc1 | 1 | – | – | – | –
N#Cc1ccc(CN2CCC(NC(=O)c3ccc(C(=O)N4CCN(S(=O)(=O)c5ccc(F)cc5)CC4)cn3)CC2)cc1 | 393 | – | – | – | –
N#Cc1ccc(CN2CCC(NC(=O)c3ccc(C(=O)N4CCC(C(O)c5ccc(F)cc5)CC4)cn3)CC2)cc1 (centres undefined) | 55 | 619 | – | – | –
N#Cc1ccc(CN2CCC(NC(=O)c3ccc(C(=O)N4CCC(C(=O)c5ccc(-n6cncn6)cc5)CC4)nc3)CC2)cc1 | 437 | – | 6310 | 4820 | –
N#Cc1ccc(S(=O)(=O)N2CCC(NC(=O)c3ccc(C(=O)N4CCN(Cc5ccc(F)cc5)CC4)cn3)CC2)cc1 | 804 | – | – | – | –
COc1ccc(C(=O)C2CCN(C(=O)c3ccc(C(=O)NC4CCN(Cc5ccc(C(=O)N(C)C)cc5)CC4)cn3)CC2)cc1 | 1050 | – | > 20000 | 13400 | –
N#Cc1ccc(CN2CCC(NC(=O)c3ccc(C(=O)N4CCC(C(=O)c5ccc(-n6ccnc6)cc5)CC4)nc3)CC2)cc1 | 312 | – | 15100 | 15100 | –
N#Cc1ccc(CN2CCC(NC(=O)c3ccc(C(=O)N4CCC(C(=O)c5ccc(F)cc5F)CC4)nc3)CC2)cc1 | 18 | 1870 | – | – | inhibition at 3 µM (hERG (KCNH2)): 64%
CC(C)(c1ccccc1)N1CCC(NC(=O)c2ccc(C(=O)N3CCN(Cc4ccc(F)cc4)CC3)cn2)CC1 | 2790 | – | – | – | –
N#Cc1ccc(CN2CCC(NC(=O)c3ccc(C(=O)N4CCN(S(=O)(=O)c5ccccc5)CC4)cn3)CC2)cc1 | 360 | – | – | – | –
N#Cc1ccc(CN2CCC(NC(=O)c3ccc(C(=O)N4CCC(C(F)c5ccc(F)cc5)CC4)cn3)CC2)cc1 (centres undefined) | 6 | 1 | – | – | half-life [3]: 8 min; IC50 (Cytochrome P450 3A4): 9800 nM
COc1ccc(CN2CCC(NC(=O)c3ccc(C(=O)N4CCC(C(=O)c5ccc(N6CCCC6)cc5)CC4)nc3)CC2)cc1 | 57 | 200 | 8400 | 13000 | –
N#Cc1ccc(CN2CCC(NC(=O)c3ccc(C(=O)N4CCC(Cc5ccccc5)CC4)cn3)CC2)cc1 | 110 | – | – | – | –
N#Cc1ccc(CN2CCC(NC(=O)c3ccc(C(=O)N4CCC(C(=O)c5ccc(C#N)cc5)CC4)cn3)CC2)cc1 | 5 | 794 | – | – | inhibition at 3 µM (hERG (KCNH2)): 54%
O=C(NC1CCN(C(=O)c2ccccc2)CC1)c1ccc(C(=O)N2CCN(Cc3ccc(F)cc3)CC2)cn1 | 240 | – | – | – | –
N#Cc1ccc(CN2CCC(NC(=O)c3ccc(C(=O)N4CCC(Oc5ccc(C#N)cc5)CC4)nc3)CC2)cc1 | 92 | 476 | – | – | –
O=C(NC1CCN(C(=O)C2CCCCC2)CC1)c1ccc(C(=O)N2CCN(Cc3ccc(F)cc3)CC2)cn1 | 300 | – | – | – | –
O=C(c1ccc(C(=O)N2CCN(Cc3ccccc3)CC2)nc1)N1CCN(Cc2ccccc2)CC1 | 10000 | – | – | – | –
COc1ccc(C(=O)C2CCN(C(=O)c3ccc(C(=O)NC4CCN(Cc5ccc(F)cc5)CC4)cn3)CC2)cc1 | 27 | 2390 | > 20000 | > 20000 | half-life [3]: 71 min; inhibition at 3 µM (hERG (KCNH2)): 64%
COc1ccc(CN2CCC(NC(=O)c3ccc(C(=O)N4CCC(C(=O)c5ccc(S(C)(=O)=O)cc5)CC4)nc3)CC2)cc1 | 1500 | – | 8720 | 7160 | –

SMILES | EC50 [1] [nM] | IC50 [2] [nM] | IC50 (NCI-H1299) [nM] | IC50 (A549) [nM] | further results
CC(c1ccccc1)N1CCC(NC(=O)c2ccc(C(=O)N3CCN(Cc4ccc(F)cc4)CC3)cn2)CC1 (centres undefined) | 129 | – | – | – | –
O=C(NC1CCN(Cc2ccccc2)CC1)c1ccc(C(=O)NC2CCN(Cc3ccccc3)CC2)nc1 | 10000 | – | – | – | –
N#Cc1ccc(CN2CCC(NC(=O)c3ccc(C(=O)N4CCC(C(=O)c5ccc(-n6cccn6)cc5)CC4)nc3)CC2)cc1 | 86 | – | 10900 | 10400 | –
O=C(NC1CCN(Cc2ccccc2)CC1)c1ccc(C(=O)N2CCN(Cc3ccccc3)CC2)cn1 | 16 | – | – | – | –
COc1ccc(C(=O)C2CCN(C(=O)c3ccc(C(=O)NC4CCN(Cc5ccc(NC(C)=O)cc5)CC4)cn3)CC2)cc1 | 1000 | – | 11000 | 8790 | –
O=C(NC1CCN(Cc2ccc(OC(F)(F)F)cc2)CC1)c1ccc(C(=O)N2CCC(C(=O)c3ccc(N4CCCC4)cc3)CC2)nc1 | 9 | 1280 | 8280 | 5060 | –
N#Cc1ccc(C(=O)N2CCC(NC(=O)c3ccc(C(=O)N4CCN(Cc5ccc(F)cc5)CC4)cn3)CC2)cc1 | 950 | – | – | – | –
COc1ccc(C(=O)C2CCN(C(=O)c3ccc(C(=O)NC4CCN(Cc5ccc(S(C)(=O)=O)cc5)CC4)cn3)CC2)cc1 | – | – | 5520 | 9140 | –
COc1ccc(S(=O)(=O)N2CCN(C(=O)c3ccc(C(=O)NC4CCN(Cc5ccc(C#N)cc5)CC4)nc3)CC2)cc1 | 548 | – | – | – | –
CC(C)(c1ccc(F)cc1)N1CCN(C(=O)c2ccc(C(=O)NC3CCN(Cc4ccc(C#N)cc4)CC3)nc2)CC1 | 6 | – | – | – | –
N#Cc1ccc(CN2CCC(NC(=O)c3ccc(C(=O)N4CCN(C(=O)c5ccccc5)CC4)cn3)CC2)cc1 | 1390 | – | – | – | –
N#Cc1ccc(CN2CCC(NC(=O)c3ccc(C(=O)N4CCC(Oc5ccc(F)cc5F)CC4)cn3)CC2)cc1 | 4 | 22 | – | – | –
N#Cc1ccc(CN2CCC(NC(=O)c3ccc(C(=O)N4CCN(Cc5ccc(F)cc5)C(=O)C4)cn3)CC2)cc1 | 466 | – | – | – | –
N#Cc1ccc(CC2CCN(C(=O)c3ccc(C(=O)NC4CCN(Cc5ccc(C#N)cc5)CC4)nc3)CC2)cc1 | 14 | 33 | – | – | half-life [3]: 14 min
CS(=O)(=O)c1ccc(C(=O)C2CCN(C(=O)c3ccc(C(=O)NC4CCN(Cc5ccc(F)cc5)CC4)cn3)CC2)cc1 | 2000 | – | 8700 | 6270 | inhibition at 3 µM (hERG (KCNH2)): 83%
O=C(NC1CCN(Cc2ccccc2)CC1)c1ccc(C(=O)N2CCN(Cc3ccccc3)CC2)nc1 | 35 | 1390 | – | – | –
CS(=O)(=O)c1ccc(C(=O)C2CCN(C(=O)c3ccc(C(=O)NC4CCN(Cc5ccc(C#N)cc5)CC4)cn3)CC2)cc1 | 2000 | – | 7190 | 6720 | –
N#Cc1ccc(CN2CCC(NC(=O)c3ccc(C(=O)N4CCN(C(=O)c5ccc(F)cc5)CC4)cn3)CC2)cc1 | 413 | – | – | – | –
N#Cc1ccc(CN2CCC(NC(=O)c3ccc(C(=O)N4CCC(Oc5ccc(F)cc5F)CC4)nc3)CC2)cc1 | 13 | 522 | – | – | inhibition at 3 µM (hERG (KCNH2)): 36%
CC(C)(C)C(=O)N1CCN(C(=O)c2ccc(C(=O)NC3CCN(Cc4ccc(C#N)cc4)CC3)nc2)CC1 | 532 | – | – | – | –
COc1ccc(CN2CCC(NC(=O)c3ccc(C(=O)N4CCC(C(=O)c5ccc(OC)cc5)CC4)nc3)CC2)cc1 | 41 | 2310 | > 20000 | > 20000 | inhibition at 3 µM (hERG (KCNH2)): 70%
N#Cc1ccc(CN2CCC(NC(=O)c3ccc(C(=O)N4CCC(C(=O)c5ccc(N6CCCC6)cc5)CC4)nc3)CC2)cc1 | 20 | 1660 | 5390 | 5050 | –
